Data from patent publication US10738028B2, “Spiro three-membered ring, spiro five-membered ring peptide deformylase inhibitor and use thereof in antibacteria and anti-tumor” (priority 2016, dated 2020).
Like-named read-outs stand apart in the source and are kept apart here.

Columns and labels:
Assay type in all cases: cell-based
[1] = test system: BEL-7402 liver cancer cell line; test: CCK-8 proliferation inhibition; details: Homo sapiens, Bel-7402, 72 h, concentration of 30 μM
Procedure, shortened: (§1)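 Plating at 2000 cells/well, then incubation overnight at 37° C. Next, a range of compound concentrations for 72 hours (control 1‰ DMSO). Finally, medium decanted and CCK-8 diluted 1:10 added.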

[2] = test system: A549 lung cancer cell line; test: CCK-8 proliferation inhibition; details: Homo sapiens, A549, 72 h, concentration of 30 μM
Procedure, shortened: as §1

[3] = test system: MGC-803 gastric cancer cell line; test: CCK-8 proliferation inhibition; details: Homo sapiens, MGC-803, 72 h, concentration of 30 μM
Procedure, shortened: as §1

[4] = test system: Enterococcus faecium (EFM); test: MIC, two-fold agar dilution (CLSI), clinical isolates
Procedure, shortened: (§2)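 MIC values come from two-fold agar dilution run per CLSI antimicrobial susceptibility testing procedure.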

[5] = test system: Enterococcus faecalis (EFA); test: as above
Procedure, shortened: as §2

[6] = test system: Streptococcus pneoumoniae (SPN); test: as above
Procedure, shortened: as §2

[7] = test system: Moraxella catarrhalis (BCA); test: as above
Procedure, shortened: as §2

[8] = test system: methicillin-sensitive Staphylococcus epidermidis (MSSE); test: as above
Procedure, shortened: as §2

[9] = test system: Escherichia coli (including ESBLs, non-ESBLs); test: as above
Procedure, shortened: as §2

[10] = test system: methicillin-resistant Staphylococcus epidermidis (MRSE); test: as above
Procedure, shortened: as §2

[11] = test system: methicillin-sensitive Staphylococcus aureus (MSSA); test: as above
Procedure, shortened: as §2

[12] = test system: methicillin-resistant Staphylococcus aureus (MRSA); test: as above
Procedure, shortened: as §2

[13] = test system: HCT-116 colorectal cancer cell line; test: CCK-8 proliferation inhibition; details: Homo sapiens, HCT-116, 72 h, concentration of 30 μM, 72 hours, CCK-8
Procedure, shortened: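 Growth inhibition is read by CCK-8 (1:10 dilution) after 72 h of compound exposure. HCT-116 cells grow in McCoy's 5A containing 10% newborn bovine serum at 2000 cells/well, with 1‰ DMSO as vehicle control.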

Compound O=C(C[C@@H](CC1CCCC1)C(=O)N1CC2(CC2)C[C@H]1C(=O)Nc1ccc(N2CCOCC2)cc1)NO [Example 61] has an inhibition at 30 µM [1] of 50%, an inhibition at 30 µM [2] of 10% and an inhibition at 30 µM [3] of 31%. For the same compound, the Anti-bacterial activity (MIC), strain EFM 15-1 ([4]; clinical isolate EFM 15-1) was over 32 mg/L, the Anti-bacterial activity (MIC), strain EFM 15-2 ([4]; clinical isolate EFM 15-2) was over 32 mg/L and the Anti-bacterial activity (MIC), strain EFM 15-3 ([4]; clinical isolate EFM 15-3) was over 32 mg/L. It also gave an Anti-bacterial activity (MIC), strain EFM 15-4 ([4]; clinical isolate EFM 15-4) of over 32 mg/L, an Anti-bacterial activity (MIC), strain EFM 15-6 ([4]; clinical isolate EFM 15-6) of 1 mg/L and an Anti-bacterial activity (MIC), strain EFA 15-1 ([5]; clinical isolate EFA 15-1) of over 32 mg/L. It also gave an Anti-bacterial activity (MIC), strain EFA 15-2 ([5]; clinical isolate EFA 15-2) of over 32 mg/L, an Anti-bacterial activity (MIC), strain EFA 15-3 ([5]; clinical isolate EFA 15-3) of over 32 mg/L and an Anti-bacterial activity (MIC), strain EFA 15-4 ([5]; clinical isolate EFA 15-4) of over 32 mg/L. For the same compound, the Anti-bacterial activity (MIC), strain EFA 15-5 ([5]; clinical isolate EFA 15-5) was over 32 mg/L, the Anti-bacterial activity (MIC), strain EFA 15-6 ([5]; clinical isolate EFA 15-6) was over 32 mg/L and the Anti-bacterial activity (MIC), strain EFA 15-9 ([5]; clinical isolate EFA 15-9) was 8 mg/L. For the same compound, the Anti-bacterial activity (MIC), strain SPN 16-2 ([6]; clinical isolate SPN 16-2) was 2 mg/L, the Anti-bacterial activity (MIC), strain SPN 16-4 ([6]; clinical isolate SPN 16-4) was 2 mg/L and the Anti-bacterial activity (MIC), strain BCA 14-1 ([7]; clinical isolate BCA 14-1) was 8 mg/L. It also gave an Anti-bacterial activity (MIC), strain BCA 14-4 ([7]; clinical isolate BCA 14-4) of 8 mg/L, an Anti-bacterial activity (MIC), strain BCA 14-5 ([7]; clinical isolate BCA 14-5) of 1 mg/L and an Anti-bacterial activity (MIC), strain BCA 14-6 ([7]; clinical isolate BCA 14-6) of 1 mg/L. It also gave an Anti-bacterial activity (MIC), strain BCA 14-7 ([7]; clinical isolate BCA 14-7) of 8 mg/L, an Anti-bacterial activity (MIC), strain BCA 14-8 ([7]; clinical isolate BCA 14-8) of 8 mg/L and an Anti-bacterial activity (MIC), strain BCA 14-10 ([7]; clinical isolate BCA 14-10) of 8 mg/L. The Anti-bacterial activity (MIC), strain MSSE 15-3 ([8]; clinical isolate MSSE 15-3) was 1 mg/L, the Anti-bacterial activity (MIC), strain MSSE 15-4 ([8]; clinical isolate MSSE 15-4) was 1 mg/L and the Anti-bacterial activity (MIC), strain MSSE 15-5 ([8]; clinical isolate MSSE 15-5) was 1 mg/L. The Anti-bacterial activity (MIC), strain MSSE 15-6 ([8]; clinical isolate MSSE 15-6) was 32 mg/L, the Anti-bacterial activity (MIC), strain ECO+ 15-1 ([9]; clinical isolate ECO+ 15-1) was over 32 mg/L and the Anti-bacterial activity (MIC), strain ECO+ 15-2 ([9]; clinical isolate ECO+ 15-2) was over 32 mg/L. The Anti-bacterial activity (MIC), strain ECO+ 15-3 ([9]; clinical isolate ECO+ 15-3) was 1 mg/L, the Anti-bacterial activity (MIC), strain ECO+ 15-4 ([9]; clinical isolate ECO+ 15-4) was 1 mg/L and the Anti-bacterial activity (MIC), strain ECO− 15-1 ([9]; clinical isolate ECO− 15-1) was over 32 mg/L. For the same compound, the Anti-bacterial activity (MIC), strain ECO− 15-2 ([9]; clinical isolate ECO− 15-2) was over 32 mg/L, the Anti-bacterial activity (MIC), strain ECO− 15-3 ([9]; clinical isolate ECO− 15-3) was over 32 mg/L and the Anti-bacterial activity (MIC), strain ECO− 15-4 ([9]; clinical isolate ECO− 15-4) was over 32 mg/L. It also gave an Anti-bacterial activity (MIC), strain MRSE 15-1 ([10]; clinical isolate MRSE 15-1) of 1 mg/L, an Anti-bacterial activity (MIC), strain MRSE 15-2 ([10]; clinical isolate MRSE 15-2) of 1 mg/L and an Anti-bacterial activity (MIC), strain MRSE 15-3 ([10]; clinical isolate MRSE 15-3) of 1 mg/L. For the same compound, the Anti-bacterial activity (MIC), strain MRSE 15-7 ([10]; clinical isolate MRSE 15-7) was 1 mg/L, the Anti-bacterial activity (MIC), strain MSSA 15-3 ([11]; clinical isolate MSSA 15-3) was 1 mg/L and the Anti-bacterial activity (MIC), strain MSSA 15-4 ([11]; clinical isolate MSSA 15-4) was 1 mg/L. It also gave an Anti-bacterial activity (MIC), strain MSSA 15-5 ([11]; clinical isolate MSSA 15-5) of over 32 mg/L, an Anti-bacterial activity (MIC), strain MSSA 15-6 ([11]; clinical isolate MSSA 15-6) of 1 mg/L and an Anti-bacterial activity (MIC), strain MRSA 15-1 ([12]; clinical isolate MRSA 15-1) of 1 mg/L. It also gave an Anti-bacterial activity (MIC), strain MRSA 15-2 ([12]; clinical isolate MRSA 15-2) of 1 mg/L, an Anti-bacterial activity (MIC), strain MRSA 15-3 ([12]; clinical isolate MRSA 15-3) of 1 mg/L and an Anti-bacterial activity (MIC), strain MRSA 15-4 ([12]; clinical isolate MRSA 15-4) of 1 mg/L. For the same compound, the inhibition at 30 µM ([13]; Table 5, read-out: Inhibition of proliferation, Colorectal cancer HCT116) was at least 30% and the inhibition at 30 µM ([13]; read-out: HCT116 inhibition rate/%) was 35%.
